From publication PMC7447640, “Synthesis, antioxidant properties and neuroprotection of α-phenyl-tert-butylnitrone derived HomoBisNitrones in in vitro and in vivo ischemia models” (Scientific Reports, 2020)

Biological target: T1, soybean lipoxygenase (LOX) (Glycine max, UniProt P08170)
T1 construct: gene LOX1.1
T1 sequence (P08170 1-839): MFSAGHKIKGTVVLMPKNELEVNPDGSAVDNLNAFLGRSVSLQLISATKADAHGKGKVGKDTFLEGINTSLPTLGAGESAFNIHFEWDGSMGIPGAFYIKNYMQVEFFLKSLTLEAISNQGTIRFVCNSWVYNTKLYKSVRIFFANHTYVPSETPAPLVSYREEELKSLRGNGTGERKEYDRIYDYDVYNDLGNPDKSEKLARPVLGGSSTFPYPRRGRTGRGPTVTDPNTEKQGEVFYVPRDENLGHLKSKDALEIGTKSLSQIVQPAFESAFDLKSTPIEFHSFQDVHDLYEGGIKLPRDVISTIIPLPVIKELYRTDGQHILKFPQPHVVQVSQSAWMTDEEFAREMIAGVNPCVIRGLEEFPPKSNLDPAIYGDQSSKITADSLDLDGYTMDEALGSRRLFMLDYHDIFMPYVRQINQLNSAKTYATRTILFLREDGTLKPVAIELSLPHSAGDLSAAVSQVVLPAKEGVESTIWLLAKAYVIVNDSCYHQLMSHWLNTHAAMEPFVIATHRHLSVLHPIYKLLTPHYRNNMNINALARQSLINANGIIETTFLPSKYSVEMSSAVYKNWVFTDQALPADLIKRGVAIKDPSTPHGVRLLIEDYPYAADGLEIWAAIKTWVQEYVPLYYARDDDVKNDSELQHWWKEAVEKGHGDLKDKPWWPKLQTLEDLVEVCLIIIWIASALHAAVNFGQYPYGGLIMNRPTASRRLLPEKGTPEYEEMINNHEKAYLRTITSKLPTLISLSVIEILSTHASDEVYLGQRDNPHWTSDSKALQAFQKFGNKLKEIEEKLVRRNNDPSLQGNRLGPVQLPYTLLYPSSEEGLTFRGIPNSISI
Assay: soybean lipoxygenase, linoleate oxidation at […] nm
Assay type: biochemical
Conditions: read-out: LOX inhibition (IC50 [μM]/%)

SMILES | IC50
C/[N+]([O-])=C/c1ccccc1/C=[N+](/C)[O-] [HBN7, (1Z,1′Z)-1,1′-(1,2-Phenylene)bis(N-methylmethanimineoxide)] | 60 µM
CC(C)(C)/[N+]([O-])=C/c1ccccc1/C=[N+](\[O-])C(C)(C)C [HBN8, (1Z,1′Z)-1,1′-(1,2-Phenylene)bis(N-tert-butylmethanimineoxide)] | 57.5 µM
[O-]/[N+](=C\c1ccccc1/C=[N+](\[O-])Cc1ccccc1)Cc1ccccc1 [HBN9, (1Z,1′Z)-1,1′-(1,2-Phenylene)bis(N-benzylmethanimineoxide)] | 85 µM
